# Test results published in US4837228A, “Antiinflammatory and antimicrobial compounds and compositions” (The University of Mississippi, priority 1982, dated 1989).
# “Also recorded” adds a separate entry of the source. Like-named read-outs stand apart in the source and are kept apart here.
# Key:
# Pseudomonas aeruginosa = assay: agar well diffusion assay, Ps. aeruginosa; type: cell-based; conditions: from edge of agar well
# Description: (§1) Both qualitative and quantitative screens were performed. Qualitative screening was accomplished using the agar well diffusion assay technque while quantitative screening was accomplished by the two-fold (broth) serial dilution method to determine the minimum inhibitory concentration (MIC). Innoculation was accomplished with one loop-full of a 1:10 dilution of the 24-hour-old broth culture, (fungal cultures and M.smegmatis more often required 48 to 72 hours of incubation) of the test organisms in sterile water. Streptomycin sulfate was used as a positive control for antibacterial activity while amphitericin B was used as an antifungal positive control. Organisms utilized in the screens included gram-positive, gram-negative, and acid-fast bacteria as well as different types of fungi. […] An intermediate type activity is seen where R is hydrogen. However, where R is lengthened up to C15 a decrease in activity was noted. Total saturation of the two double bonds in the compounds having a methyl side chain lead, in most cases, to an increase in both antifungal and antibacterial activity.
# [1] = inducement of hypothermia in mice (rectal temperature); type: in vivo; conditions: 100 mg/kg i.p.
# Description: CBC (100 mg/kg) was prepared in emulsion form with 3% Tween 60 and 3% Arlacel in normal saline (0.9%) in such a way as to permit a volume of […] of body weight to be injected intraperitoneally into male mice weighing between 32 and 38 grams.
# The animals were divided into groups of 10, and body temperatures were recorded with a multichannel Yellow Springs Telethermometer and Thermistor probes. During the experiment, the mice were confined in plastic restraint tubes. They were allowed 45-60 min. for adaption to the restraint tubes and to rectal thermister before a pre-drug baseline temperature reading was taken. Body temperature readings were obtained at 0.5, 1.0, 2.0, 3.0 and 4.0 hrs. post-CBC administration.
# The mean (±S.E.) decrease in temperature from the preinjection baseline reading for saline-, vehicle-, and CBC-treated mice were calculated and statistical analyses were conducted using the two-tailed Student's t test.
# Mycobacterium smegmatis [2] = assay: agar well diffusion assay, M. smegmatis; type: cell-based; conditions: from edge of agar well
# Description: as §1
# Saccharomyces cerevisiae [3] = assay: agar well diffusion assay, S. cerevisiae; type: cell-based; conditions: from edge of agar well
# Description: as §1
# Mycobacterium smegmatis [4] = assay: MIC, two-fold (broth) serial dilution, M. smegmatis; type: cell-based; conditions: Mycolicibacterium smegmatis, read-out: MIC
# Summary of the method: (§2)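 Inoculation used a single loop of diluted (1:10) 24-hour broth culture suspended in sterile water, with incubation extended to 48–72 hours for fungi and M. smegmatis. Activity is read qualitatively by well diffusion on agar and quantitatively as MIC via twofold dilution series.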
# Saccharomyces cerevisiae [5] = assay: MIC, two-fold (broth) serial dilution, S. cerevisiae; type: cell-based
# Summary of the method: as §2
# Bacillus subtilis = assay: MIC, two-fold (broth) serial dilution, B. subtilis; type: cell-based; conditions: Bacillus subtilis, read-out: MIC
# Summary of the method: as §2
# [6] = test system: carrageenan-induced rat paw edema; assay: carrageenan-induced rat paw edema test, oral gavage; type: in vivo; design: key to mean difference in volume (MDV): ml; post-injection minus pre-injection mean paw volume; conditions: for inhibition at 120 mg/kg / inhibition at 240 mg/kg / inhibition at 480 mg/kg: Rattus norvegicus, po, Table 5; for inhibition at 120 mg/kg: read-out: inhibition of carrageenan-induced rat paw edema
# Description: In the Rat Paw Edema Test, the rats utilized were divided into test groups of six to eight animals, weighed and marked so that individual rats could be identified; one hour before testing all rats were given a 700 mg/kg intraperitoneal injection of ethyl urethane in distilled water to render them tractable during testing. […] Negative control groups received the vehicle; while positive control groups received a dose of phenylbutazone (PBZ) as shown in Table II. Test compounds were given at doses of 60, 120, 240 and 480 mg/kg. The positive controls were given at 120 mg/kg and 60 mg/kg. Phenylbutazone was prepared for injection by suspending it in normal saline using Tween 60. The rats were then held in group cages for 30 minutes. The volume of the left hind paw was measured using a mercury displacement pleysmograph. The paw is dipped into the mercury until the mercury touches the line above the ankle. Mercury is then withdrawn until the mercury returns to its original level. The amount of mercury removed is measured in milliliters (ml). The mercury can be measured accurately to 0.01 ml. This left hind paw was then injected with 0.1 ml of a 5% w/v solution of viscous carageenan in normal saline. The injection was given between the metatarsal bones using a 27 gauge needle, and the rats then held in group cages for 3 hours. The volume of the left hind paws was measured again in the pleysmograph. The results were computed in the following manner:
# a. A mean is taken for both the pre-injection and post-injection paw volume of each test group.
# b. The mean difference in volume (MDV) for each test group is computed by subtracting the pre-injection means from the post-injection mean.
# c. The percent of control is computed for each test [formula] The percent of control is used to compare the efficacy of the various drug treatments.
# d. The percent increase in paw volume is calculated for each group as: [formula] The percent increase is used to compare the amount of edma observed in one experiment to the amount of edma observed in other experiments.
# […] The test was conducted twice, once with nonfasted rats and once with rats that had been fasted during the 24 hour period prior to dosing. The 60 mg/kg phenylbutazone control group was not used in the test with fasted animals. Tween 60 in normal saline was the vehicle control for the non-fasted rats and normal saline was the vehicle control for the fasted rats.
# Staphylococcus aureus = assay: agar well diffusion assay, S. aureus; type: cell-based; conditions: from edge of agar well
# Description: as §1
# [7] = test system: Trichophyton mentagrophytes; assay: MIC, two-fold (broth) serial dilution, T. mentagrophytes; type: cell-based
# Summary of the method: as §2
# [8] = Table 6, 120 mg/kg oral, non-fasted rats
# [9] = Table 6, 240 mg/kg oral, non-fasted rats
# [10] = Table 6, 480 mg/kg oral, non-fasted rats
# [11] = Table 7, 120 mg/kg oral, fasted rats, doses approximate
# [12] = Table 7, 240 mg/kg oral, fasted rats, doses approximate
# [13] = Table 7, 480 mg/kg oral (given following saline infusion), fasted rats, doses approximate
smiles,measurement,setting,value
"CCCCCc1cc(O)c2c(c1)OC(C)(CCC=C(C)C)C=C2 (stereo not shown) [CBC (I), 2-methyl-2(4'methyl-pent-3'-enyl)-5-hydroxy-7-pentyl chromene]",width of inhibition zone,Pseudomonas aeruginosa; 24 hr,1. mm
same,width of inhibition zone,Pseudomonas aeruginosa; 48 hr,1. mm
same,time of peak hypothermic effect,[1],within the first two hours
same,mean (±S.E.) decrease in rectal temperature,[1]; 0.5 hrs,1.86 ± 0.18 °0
same,mean (±S.E.) decrease in rectal temperature,[1]; 1.0 hrs,2.52 ± 0.26 °0
same,mean (±S.E.) decrease in rectal temperature,[1]; 2.0 hrs,1.93 ± 0.21 °0
same,mean (±S.E.) decrease in rectal temperature,[1]; 3.0 hrs,1.53 ± 0.21 °0
same,mean (±S.E.) decrease in rectal temperature,[1]; 4.0 hrs,1.61 ± 0 °0
same,"hypothermia, significance versus controls",[1]; listed as CBC,"significantly different from saline controls at all readings; also recorded: significantly different from vehicle controls at 0.5, 1.0 and 4.0 hrs"
same,width of inhibition zone,Mycobacterium smegmatis [2]; 24 hr,15. mm
same,width of inhibition zone,Mycobacterium smegmatis [2]; 48 hr,12. mm
same,width of inhibition zone,Saccharomyces cerevisiae [3]; 48 hr,8. mm
same,width of inhibition zone,Saccharomyces cerevisiae [3]; 72 hr,8. mm
same,MIC,Mycobacterium smegmatis [4]; 24 h,12.5 µg/mL
same,MIC,Mycobacterium smegmatis [4]; 48 h,25 µg/mL
same,MIC,Saccharomyces cerevisiae [5]; 48 hr,25.0 µg/mL
same,MIC,Saccharomyces cerevisiae [5]; 72 hr,50.0 µg/mL
same,MIC,"Saccharomyces cerevisiae [5]; Saccharomyces cerevisiae, 48 h, read-out: MIC",25 µg/mL
same,MIC,"Saccharomyces cerevisiae [5]; Saccharomyces cerevisiae, 72 h, read-out: MIC",50 µg/mL
same,MIC,Bacillus subtilis; 24 h,0.39 µg/mL
same,MIC,Bacillus subtilis; 48 h,0.78 µg/mL
same,inhibition at 120 mg/kg,"[6]; 120 mg/kg oral, fasted rats, N.S.",35%
same,inhibition at 120 mg/kg,"[6]; 120 mg/kg oral, nonfasted rats",21%
same,inhibition at 240 mg/kg,"[6]; 240 mg/kg oral, fasted rats, * P = 0.01",67%
same,inhibition at 240 mg/kg,"[6]; 240 mg/kg oral, nonfasted rats, ** P = 0.05",34%
same,inhibition at 480 mg/kg,"[6]; 480 mg/kg oral, fasted rats, ** P = 0.05",55%
same,inhibition at 480 mg/kg,"[6]; 480 mg/kg oral, nonfasted rats, * P = 0.01",50%
same,mean difference in volume (MDV),[6]; [8],0.496
same,percent increase in paw volume,[6]; [8],41.311%
same,percent of control,[6]; [8],79.400%
same,mean difference in volume (MDV),[6]; [9],0.412
same,percent increase in paw volume,[6]; [9],38.372%
same,percent of control,[6]; [9],66.000%
same,mean difference in volume (MDV),[6]; [10],0.315
same,percent increase in paw volume,[6]; [10],29.200%
same,percent of control,[6]; [10],50.400%
same,mean difference in volume (MDV),[6]; [11],0.409
same,percent increase in paw volume,[6]; [11],31.382%
same,percent of control,[6]; [11],65.400%
same,mean difference in volume (MDV),[6]; [12],0.209
same,percent increase in paw volume,[6]; [12],15.981%
same,percent of control,[6]; [12],53.400%
same,mean difference in volume (MDV),[6]; [13],0.281
same,percent increase in paw volume,[6]; [13],22.321%
same,percent of control,[6]; [13],45.000%
same,antiinflammatory activity compared with PBZ in words,"[6]; oral, listed as CBC",about equally effective at 120 mg/kg in the fasted rats; also recorded: generally more effective in inhibiting edema than was PBZ
same,width of inhibition zone,Staphylococcus aureus; 24 hr,10. mm
same,width of inhibition zone,Staphylococcus aureus; 48 hr,10. mm
same,MIC,[7]; 48 hr,25.0 µg/mL
same,MIC,[7]; 72 hr,50.0 µg/mL
same,MIC,"[7]; Trichophyton mentagrophytes, 48 h, read-out: MIC",25 µg/mL
same,MIC,"[7]; Trichophyton mentagrophytes, 72 h, read-out: MIC",50 µg/mL
